Measurements as given in patent US20060034856A1, “Epha2 antigen t epitopes” (priority 2002, published 2006).
Ends that are not written are not given here.

Columns and labels:
HLA-A*0201 [1] = biological target: T1, HLA-A*0201 (Homo sapiens, UniProt P04439, D140Y/D185E/D98H/E176V/E277Q/G131W/G231S/I119V/I121R/I166T/I218V/L300P/L318F/N151K/N90K/P208A/P217A/Q86G/Q94H/R138H/R169H/T345S); settings: ratio of peptide to reference peptide (HIVpol 589) concentration inducing 20% of fluorescence of 100 μM reference; T2 cells; lower RA = stronger binding; mean of at least three experiments
Method: (§1) The immunogenicity of these peptides was evaluated by measuring their affinity for HLA-A*0201. This is defined by two parameters: the relative affinity (RA) which reflects the ability of the peptides to bind to HLA-A*0201, and the rate of dissociation of the HLA-A*0201/peptide complexes (DC50), which reflects their stability.
Human T2 cells (Firat et al., Eur. J. Immunol., 29, 3112, 1999) (3×10^5 cells/ml), which are deficient in TAP transporters, are incubated at 37° C. for 16 hours with various concentrations (100 μM, 10 μM, 1 μM, 0.1 μM) of each test peptide, in serum-free RPMI 1640 medium supplemented with 100 ng/ml of human β2-microglobulin. Next, they are washed twice and labeled with the monoclonal antibody BB7.2 (Parham et al., Hum. Immunol., 3, 4, 277-299, 1981) which is specific for the HLA-A*0201 molecule, and then with a goat anti-mouse Ig antibody coupled to fluorescein isothiocyanate (FITC).
These cells are then analyzed by flow cytometry. […] The relative affinity (RA) is defined as the ratio of the concentration of each peptide that induces 20% of the fluorescence obtained with 100 μM of the reference peptide, to the concentration of the reference peptide that induces 20% of the fluorescence obtained with 100 μM of said reference peptide. […] The mean RA for each peptide is determined from at least three independent experiments.

HLA-A*0201 [2] = biological target: T1, HLA-A*0201; test: Stability of HLA-A*0201/peptide complexes (DC50) on T2 cells; format: binding; design: endogenous in cells; host or cells: human T2 cells (TAP-deficient); settings: time for loss of 50% of HLA-A*0201/peptide complexes stabilized at t=0, 100 μM peptide, 37° C.
Method: as §1, with “stability. The high-affinity peptides (RA<5 and DC50>2 hrs) are potentially immunogenic, unlike the low-affinity peptides (RA>5 and DC50<2 hrs).” for “stability.”
T2 cells (10^6/ml) are incubated overnight at 37° C. with 100 μM of each test peptide, in serum-free RPMI 1640 medium supplemented with 100 ng/ml of human β2-microglobulin. Next, they are washed four times in order to remove the free peptides, incubated with BREFELDIN A (Sigma; 10 μg/ml) for one hour in order to prevent the expression at their surface of newly synthesized HLA-A*0201 molecules, washed, and incubated at 37° C. for 0, 2, 4, 6 or 8 hours in the presence of BREFELDIN A (0.5 μg/ml). For each incubation time, the cells are then labeled, as indicated above, with the BB7.2 antibody and analyzed by flow cytometry in order to evaluate the amount of peptide/HLA-A*0201 complex present at their surface. This amount is evaluated by means of the formula: (mean fluorescence of the T2 cells preincubated with the peptide−mean fluorescence of the T2 cells treated under similar conditions in the absence of peptide). The DC50 (dissociation complex: DC) is defined as being the time (in hours) required for the loss of 50% of the HLA-A*0201/peptide complexes which are stabilized at t=0.

[3] = biological target: T2, HLA-A*0201 molecule on human T2 cells (human); test: T2 cell HLA-A*0201 stabilisation, flow cytometry with BB7.2; peptide concentration giving 20% of reference fluorescence, relative to HIVpol 589
T2 construct: MHC class I molecule on T2 cells

Row | Molecule | RA (relative affinity) (HLA-A*0201 [1]) | DC50 (HLA-A*0201 [2]) [h] | RA (relative affinity) [3]
1 | VLLLVLAGV [p546, VLLLVLAGV] | 1.4 | 4 to 6 | 
2 | IMNDMPIYM [p58, IMNDMPIYM] | 1 | 4 | 
3 | YMPIYMYSV [p61Y, YMPIYMYSV] | 1.5 |  | 
4 | VLAGVGFFI [p550, VLAGVGFFI] | 1 | 4 to 6 | 
5 | DMPIYMYSV [p61] | >10 |  | 
6 | TLADFDPRV [p883, TLADFDPRV] |  | 2 to 4 | 
7 | VLAGVGFFI (Synthetic 9-mer fragment of the human EphA2 antigen) [p550 peptide of EphA2] |  |  | 1 ratio to reference peptide
8 | VLLLVLAGV (Synthetic 9-mer fragment of the human EphA2 antigen) [p546 peptide of EphA2] |  |  | 1.4 ratio to reference peptide
9 | IMNDMPIYM (Synthetic 9-mer fragment of the human EphA2 antigen (SYNT:EM), purity >85%) [p58 peptide of EphA2] |  |  | 1 ratio to reference peptide
10 | TLADFDPRV (Synthetic 9-mer fragment of the human EphA2 antigen) [p883 peptide of EphA2] |  |  | 2.2 ratio to reference peptide
11 | YMPIYMYSV (Variant of p61 in which the N-terminal aspartic acid is replaced by tyrosine) [p61Y variant peptide] |  |  | 1.5 ratio to reference peptide
